Activity calls are given as the source filed them.
Assays:
[1] = tested on: HEK293; assay: NOD1 signaling inhibitors, primary screen, cell-based, luminescence, uHTS (AID 1578); type: functional; settings: Homo sapiens
[2] = tested on: HEK293; assay: cells; type: functional, cell-based; settings: Homo sapiens
[3] = biological target: T1, Streptokinase A (Streptococcus pyogenes serotype M1, UniProt P10520); assay: S. pyogenes streptokinase expression inhibitors, potency, dose response, plasminogen activation absorbance, OD405 (AID 1914); type: functional, Streptococcus pyogenes M1 GAS;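 note: secreted streptokinase activity via plasminogen activation per viability signal from cell pellet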
T1 sequence (P10520 whole entry): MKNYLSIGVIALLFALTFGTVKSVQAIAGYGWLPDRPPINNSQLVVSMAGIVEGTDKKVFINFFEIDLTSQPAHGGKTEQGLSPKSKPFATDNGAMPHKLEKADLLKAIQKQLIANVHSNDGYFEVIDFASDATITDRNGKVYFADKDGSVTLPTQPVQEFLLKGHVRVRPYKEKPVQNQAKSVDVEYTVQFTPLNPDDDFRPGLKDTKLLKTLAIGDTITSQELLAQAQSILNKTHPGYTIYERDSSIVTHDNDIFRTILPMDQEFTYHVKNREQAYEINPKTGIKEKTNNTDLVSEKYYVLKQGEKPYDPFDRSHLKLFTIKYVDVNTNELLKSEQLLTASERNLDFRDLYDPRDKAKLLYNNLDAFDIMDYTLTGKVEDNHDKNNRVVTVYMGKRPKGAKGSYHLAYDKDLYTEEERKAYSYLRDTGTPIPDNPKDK

[4] = tested on: HEK293; assay: cells; type: functional, cell-based; settings: Homo sapiens; remark: listed apart in the source
[5] = tested on: HEK293; assay: NOD2 signaling inhibitors in MDP-stimulated cells, cell-based, uHTS, luminescence (AID 2001); type: functional; settings: Homo sapiens
[6] = Counterscreen for AddAB inhibitors: absorbance-based bacterial cell-based high throughput dose response assay for inhibitors of bacterial viability. [Related pubchem assays (depositor defined):AID435030, AID449728, AID449731, AID488942, AID488955, AID488956]; type: functional
[7] = biological target: T2, RNA-binding protein pos-1 (Caenorhabditis elegans, UniProt G5EF15); assay: inhibitors of POS-1/mex-3 RNA binding, dose response, biochemical, fluorescence polarization (AID 1964);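 note: purified POS-1 fused to maltose binding protein made in E. coli; potency of compounds blocking POS-1 binding to fluorescent RNA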
T2 sequence (G5EF15 whole entry): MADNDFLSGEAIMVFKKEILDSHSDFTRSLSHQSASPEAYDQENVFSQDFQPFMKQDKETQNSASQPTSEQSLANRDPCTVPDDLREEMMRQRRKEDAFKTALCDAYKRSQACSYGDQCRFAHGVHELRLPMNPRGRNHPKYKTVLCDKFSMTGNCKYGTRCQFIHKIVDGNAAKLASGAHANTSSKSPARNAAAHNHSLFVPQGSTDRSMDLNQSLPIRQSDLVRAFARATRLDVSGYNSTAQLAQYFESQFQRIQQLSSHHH

[8] = biological target: T3, Short transient receptor potential channel 4 (Mus musculus, UniProt Q9QUQ5); assay: mouse TRPC4 channel inhibitors, dose response, cell-based, HEK293 TRPC4/mu-opioid, Fluo-4 calcium (AID 434942); type: functional;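 note: potency of inhibitors blocking the TRPC4 calcium response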
T3 sequence (Q9QUQ5 whole entry): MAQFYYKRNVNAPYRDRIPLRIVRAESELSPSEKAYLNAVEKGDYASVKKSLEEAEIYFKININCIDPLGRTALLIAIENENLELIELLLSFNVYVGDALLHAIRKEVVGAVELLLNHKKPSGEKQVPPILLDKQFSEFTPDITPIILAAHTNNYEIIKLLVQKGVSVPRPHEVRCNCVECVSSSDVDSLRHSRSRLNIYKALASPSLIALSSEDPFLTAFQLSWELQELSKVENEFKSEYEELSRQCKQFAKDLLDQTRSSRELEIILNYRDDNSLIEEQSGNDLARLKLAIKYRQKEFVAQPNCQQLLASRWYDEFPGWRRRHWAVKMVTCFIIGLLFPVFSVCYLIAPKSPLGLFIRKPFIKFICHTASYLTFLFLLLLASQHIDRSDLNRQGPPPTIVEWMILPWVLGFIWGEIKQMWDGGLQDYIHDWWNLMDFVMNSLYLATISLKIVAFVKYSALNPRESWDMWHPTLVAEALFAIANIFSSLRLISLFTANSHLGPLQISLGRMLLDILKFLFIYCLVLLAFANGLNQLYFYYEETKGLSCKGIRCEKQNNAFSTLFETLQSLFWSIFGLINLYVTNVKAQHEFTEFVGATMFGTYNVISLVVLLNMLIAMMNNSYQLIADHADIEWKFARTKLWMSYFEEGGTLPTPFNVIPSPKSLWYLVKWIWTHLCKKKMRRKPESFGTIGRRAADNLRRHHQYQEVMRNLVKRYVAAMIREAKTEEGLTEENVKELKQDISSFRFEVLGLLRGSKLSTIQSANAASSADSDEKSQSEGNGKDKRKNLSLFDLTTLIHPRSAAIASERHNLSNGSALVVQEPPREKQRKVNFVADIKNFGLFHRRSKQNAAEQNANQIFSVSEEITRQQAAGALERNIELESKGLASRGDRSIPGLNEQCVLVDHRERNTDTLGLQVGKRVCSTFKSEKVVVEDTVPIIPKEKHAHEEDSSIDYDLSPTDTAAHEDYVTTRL

[9] = growth suppression of PTEN-null colon cells, dose response, cell-based, HCT116 PTEN knockout (AID 1047); type: functional;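 note: HCT116 colon tumor cells with PTEN knocked out; cells exposed to compound for 60 hours before readout; potency for loss of cell viability measured by luminescence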
[10] = biological target: T4, Mitochondrial peptide methionine sulfoxide reductase (Bos taurus, UniProt P54149); assay: Absorbance-based biochemical high throughput dose response assay for activators of Methionine sulfoxide reductase A (MsrA).; type: functional
T4 sequence (P54149 whole entry): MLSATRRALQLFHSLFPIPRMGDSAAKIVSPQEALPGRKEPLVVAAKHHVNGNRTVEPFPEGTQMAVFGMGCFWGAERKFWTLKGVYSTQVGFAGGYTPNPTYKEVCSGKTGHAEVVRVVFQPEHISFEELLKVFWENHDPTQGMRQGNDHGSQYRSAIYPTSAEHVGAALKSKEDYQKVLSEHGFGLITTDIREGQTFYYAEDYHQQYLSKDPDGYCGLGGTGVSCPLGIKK

[11] = biological target: Photoreceptor-specific nuclear receptor (Homo sapiens, UniProt Q9Y5X4); type: functional, cell-based;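 note: CHO-S cells with Gal4-NCOR and VP16-NR2E3 two-hybrid luciferase reporter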
Chain of Photoreceptor-specific nuclear receptor (Q9Y5X4 whole entry, the tested form may be a part): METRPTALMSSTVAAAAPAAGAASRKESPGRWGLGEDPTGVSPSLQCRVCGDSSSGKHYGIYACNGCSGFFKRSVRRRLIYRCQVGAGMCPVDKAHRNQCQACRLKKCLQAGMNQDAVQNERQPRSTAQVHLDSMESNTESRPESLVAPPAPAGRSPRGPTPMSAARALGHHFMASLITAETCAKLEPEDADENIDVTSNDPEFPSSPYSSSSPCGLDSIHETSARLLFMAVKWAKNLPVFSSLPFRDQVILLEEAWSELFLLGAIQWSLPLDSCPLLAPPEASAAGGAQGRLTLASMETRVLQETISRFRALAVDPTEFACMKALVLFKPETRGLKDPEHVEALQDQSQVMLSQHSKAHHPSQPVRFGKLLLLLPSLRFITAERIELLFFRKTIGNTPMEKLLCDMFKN

CCSc1nsc(NC(=O)Nc2cccc(F)c2)n1
EC50 [1]: 3.22 µM (active) | IC50 [2]: 3.7 µM (active) | EC50 [3]: 40.5 µM (active) | IC50 [4]: 10.8 µM (active) | IC50 [5]: 3.82 µM (inactive) | IC50 [6]: > 119 µM (inactive)

O=[N+]([O-])c1ccc(/C=N/n2cnc3ccccc32)s1
EC50 [7]: > 300 µM (inconclusive) | IC50 [6]: 91.4 µM (inactive)

CC(C)c1ccc(S(=O)(=O)/N=C2\C=C(NS(=O)(=O)c3ccccc3)C(=O)c3ccccc32)cc1
EC50 [8]: 7.5 µM (active)

COc1ccc(CNC(=O)c2c(C)oc3c2C(=O)c2ccccc2C3=O)cc1
EC50 [3]: > 150 µM (not active) | EC50 [9]: 20.1 µM (active) | EC50 [10]: > 104 µM (inactive) | IC50 [11]: 1.21 µM (active)

— ChEMBL document CHEMBL1201862, “PubChem BioAssay data set” (2004)
